Reference: ChEMBL document CHEMBL1201862, “PubChem BioAssay data set” (2004)
Calls of active or inactive are those of the source.

What was measured:
[1] = molecular target: Scavenger receptor class B member 1 (Mus musculus, UniProt Q61009); test: mouse SR-BI DiI-HDL uptake blockers – ldlA[mSR-BI] cells, fluorescence, cherry pick, dose response (AID 493194); format: functional, cell-based;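 also: cellular uptake of fluorescent DiI-labeled HDL measured as cell fluorescence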
[2] = NIH-3T3 fibroblast cytotoxicity, dose response, cytotoxicity control, cell-based, fluorescence, Alamar Blue, secondary assay (AID 2327); format: functional;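 also: NIH-3T3 mouse fibroblasts cultured with fluconazole at 8 µg/mL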
[3] = decrease of insulin promoter-GFP reporter – imaging, high-content screening, mouse beta cells (AID 1628); format: functional; conditions: MIN6
[4] = MIN6 cell viability loss – mouse insulinoma, cytotoxicity control, dose response (AID 2122); format: functional;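 also: confirmatory high-throughput counterscreen run to flag cytotoxic compounds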
[5] = fluconazole-exposed Candida albicans growth modulators – fluorescence, retest, confirmation (AID 2467); format: functional, cell-based
[6] = viability of PTEN-deleted HCT116 cells – cell-based, HCT116 PTEN knockout, dose response (AID 1047); format: functional;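 also: HCT116 colon tumor cells with PTEN knocked out; cells exposed to compound for 60 hours before readout; potency for loss of cell viability measured by luminescence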
[7] = viability of HCT116 lacking mutant beta-catenin – cell-based, human colon tumor, dose response (AID 1045); format: functional;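 also: HCT116 colon tumor cells with beta catenin knocked out; cells exposed to compound for 60 hours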
[8] = molecular target: T1, Ubiquitin-conjugating enzyme E2 N (Homo sapiens, UniProt P61088); format: functional;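 also: Dose-response confirmation in a TR-FRET assay detecting UBC13-driven polyubiquitin chain formation, inhibition measured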
T1 sequence (P61088 whole entry): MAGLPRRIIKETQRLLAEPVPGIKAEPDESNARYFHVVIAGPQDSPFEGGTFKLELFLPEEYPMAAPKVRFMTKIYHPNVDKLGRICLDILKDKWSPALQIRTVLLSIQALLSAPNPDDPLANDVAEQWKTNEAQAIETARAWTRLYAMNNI

Cysteine protease ATG4B = molecular target: T2, Cysteine protease ATG4B (Homo sapiens, UniProt Q9Y4P1); format: functional;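 also: Fluorescence-based dose-response confirmation assay measuring inhibition of ATG4B activity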
T2 sequence (Q9Y4P1 whole entry): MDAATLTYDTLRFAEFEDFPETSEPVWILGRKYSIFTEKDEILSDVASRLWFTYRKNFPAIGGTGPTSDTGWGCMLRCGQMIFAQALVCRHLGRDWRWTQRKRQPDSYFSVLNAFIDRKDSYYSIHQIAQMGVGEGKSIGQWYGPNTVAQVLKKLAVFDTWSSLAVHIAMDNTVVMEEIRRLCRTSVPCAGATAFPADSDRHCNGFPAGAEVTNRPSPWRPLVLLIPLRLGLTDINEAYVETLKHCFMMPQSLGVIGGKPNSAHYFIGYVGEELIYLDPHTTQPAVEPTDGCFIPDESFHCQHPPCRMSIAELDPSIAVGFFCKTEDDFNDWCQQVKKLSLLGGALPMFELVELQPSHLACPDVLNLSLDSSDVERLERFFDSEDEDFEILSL

X-box-binding protein 1 = X-box-binding protein 1 (Homo sapiens, UniProt P17861); format: functional, Cricetulus griseus;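 also: confirmatory dose-response counter-screen serving a CHOP assay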
Phospholipase A2 = Phospholipase A2 (Homo sapiens, UniProt P04054); format: functional;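 also: confirmatory dose-response counterscreen on phospholipase A2, testing hits that came from an ultra-high-throughput screen for ATG4B inhibitors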
[9] = blockers of HIV-1 envelope-mediated cell-cell fusion – cherry-pick, dose response (AID 652057); format: functional, cell-based
[10] = viability loss in CEM21 cells – cell-based, CellTiter-Glo luminescence, cherry-picked, cytotoxicity control for viral fusion inhibitor project, dose response (AID 652042); format: functional;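 also: potency for signal decrease meaning cytotoxicity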
[11] = blockers of HIV-1 ZM109 envelope-driven cell-cell fusion – HeLa effector, CEM target cells, luciferase, cherry-pick, dose response (AID 652058); format: functional, cell-based;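 also: luciferase signal from HIV-1 Env mediated cell-cell fusion of effector and target cells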
[12] = off-target signal loss in HeLa-CEM21 co-culture – HeLa F-luc CTL cells, cherry-picked, counter-screen for HIV-1 Env fusion inhibitor project, dose response (AID 652040); format: functional, cell-based;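 also: potency for signal decrease marking cytotoxic or nonspecific inhibition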
[13] = HIV-1 AD8 envelope cell-cell fusion blockers – cherry-pick, dose response (AID 652062); format: functional, cell-based;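 also: luciferase signal from cell-cell fusion driven by HIV-1 clade B AD8 Env; potency is for inhibitors of fusion seen as a drop in luminescence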

Sequence of Scavenger receptor class B member 1 (Q61009 whole entry): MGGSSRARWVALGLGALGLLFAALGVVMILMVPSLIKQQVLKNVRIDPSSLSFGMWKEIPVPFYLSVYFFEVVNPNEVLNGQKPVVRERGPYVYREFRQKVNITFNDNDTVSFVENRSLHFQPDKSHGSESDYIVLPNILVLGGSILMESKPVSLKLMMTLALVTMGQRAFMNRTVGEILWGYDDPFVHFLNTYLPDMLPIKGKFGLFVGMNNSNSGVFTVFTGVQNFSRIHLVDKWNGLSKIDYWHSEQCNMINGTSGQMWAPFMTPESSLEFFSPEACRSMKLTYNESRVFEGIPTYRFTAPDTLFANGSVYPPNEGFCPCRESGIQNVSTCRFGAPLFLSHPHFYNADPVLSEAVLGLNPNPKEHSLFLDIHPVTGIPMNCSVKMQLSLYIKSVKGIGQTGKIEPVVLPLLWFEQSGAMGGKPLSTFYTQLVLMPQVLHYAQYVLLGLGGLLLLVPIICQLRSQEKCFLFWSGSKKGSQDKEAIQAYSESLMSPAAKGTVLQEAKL
Sequence of Phospholipase A2 (P04054 whole entry, the tested form may be a part): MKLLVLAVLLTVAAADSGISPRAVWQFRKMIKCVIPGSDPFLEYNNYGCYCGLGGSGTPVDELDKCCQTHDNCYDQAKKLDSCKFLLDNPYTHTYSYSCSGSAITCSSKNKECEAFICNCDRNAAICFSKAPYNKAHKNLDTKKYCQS
Sequence of X-box-binding protein 1 (P17861 whole entry): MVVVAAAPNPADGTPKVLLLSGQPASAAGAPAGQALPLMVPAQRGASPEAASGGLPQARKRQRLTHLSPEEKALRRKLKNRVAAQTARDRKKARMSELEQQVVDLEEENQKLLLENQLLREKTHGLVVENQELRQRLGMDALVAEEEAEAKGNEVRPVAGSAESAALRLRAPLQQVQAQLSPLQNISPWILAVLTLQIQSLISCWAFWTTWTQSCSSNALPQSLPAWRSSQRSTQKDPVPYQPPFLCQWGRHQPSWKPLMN

Structure (SMILES): COCc1cc(=O)oc2cc(NC(=O)c3ccc(C(C)(C)C)cc3)ccc12
- AC50 [1]: 50.2 µM (active)

Structure (SMILES): Cc1cc(Nc2ccc(Cl)cc2)nc(NCc2ccccc2)n1
- EC50 [2]: > 150 µM (inactive)
- IC50 [3]: 1.51 µM (active)
- IC50 [4]: 878 nM (active)
- EC50 [5]: 2.45 µM (active)
- EC50 [6]: 5.72 µM (active)
- EC50 [7]: 6.7 µM (active)
- IC50 [8]: > 20 µM (inactive)
- IC50 (Cysteine protease ATG4B): 10.9 µM (active)
- Absolute IC50 (XBP1) (X-box-binding protein 1): < 10 µM
- IC50 (Phospholipase A2): 15.4 µM (active)
- AC50 [9]: 2.98 µM (active)
- AC50 [10]: 15.3 µM (active)
- AC50 [11]: 3.31 µM (active)
- AC50 [12]: 4.05 µM (active)
- AC50 [13]: 8.5 µM (active)
